Measured values reported in patent US7442833B2, “Triphenylethylene compounds as selective estrogen receptor modulators” (SmithKline Beecham Corporation, priority 2003, dated 2008).
Values after ≈ are worked out from the molar mass of the structure shown. Values joined by “and” are separate entries in the source; they are usually repeats but may differ in a detail not shown here. Identical values can stand only once. Counter-ions that a name gives are not always drawn.

Legend:
[1] = Rat oral pharmacokinetics: bioavailability of compound 1; assay type: in vivo, female CD (Charles River Sprague Dawley) rats; settings: for Bioavailability of 1 in Rat (% F): Table I; for Bioavailability of 1 in Rat: Table II
Protocol: In order to study the pharmacokinetic behavior of the prodrugs of this invention, a single oral dose of a series of prodrugs as well as compound 1 was administered to female CD (Charles River Sprague Dawley) rats. Rats received each compound by oral gavage at a dose of 10 mg/kg. […]

[2] = Equilibrium solubility in fasted state simulated intestinal fluid (SIF); assay type: physicochemical; settings: fassif, thermodynamic from solid, pH = 6.8
From the text: Traditionally, prodrugs have often been used to increase the bioavailability of a drug via improvement of prodrug solubility by attaching a water-soluble moiety (the “progroup”) to a poorly water soluble parent drug (D. Fleisher, Adv. Drug Del. Rev. (1996) 19, 115-130, incorporated herein by reference).

[3] = molecular target: estrogen receptor subtype alpha (Homo sapiens, UniProt P03372); settings: relative to estradiol; reported by Weatherman, Chem. and Biol. (2001) 8, 427-436; cited from earlier work
Chain of estrogen receptor subtype alpha (P03372 whole entry): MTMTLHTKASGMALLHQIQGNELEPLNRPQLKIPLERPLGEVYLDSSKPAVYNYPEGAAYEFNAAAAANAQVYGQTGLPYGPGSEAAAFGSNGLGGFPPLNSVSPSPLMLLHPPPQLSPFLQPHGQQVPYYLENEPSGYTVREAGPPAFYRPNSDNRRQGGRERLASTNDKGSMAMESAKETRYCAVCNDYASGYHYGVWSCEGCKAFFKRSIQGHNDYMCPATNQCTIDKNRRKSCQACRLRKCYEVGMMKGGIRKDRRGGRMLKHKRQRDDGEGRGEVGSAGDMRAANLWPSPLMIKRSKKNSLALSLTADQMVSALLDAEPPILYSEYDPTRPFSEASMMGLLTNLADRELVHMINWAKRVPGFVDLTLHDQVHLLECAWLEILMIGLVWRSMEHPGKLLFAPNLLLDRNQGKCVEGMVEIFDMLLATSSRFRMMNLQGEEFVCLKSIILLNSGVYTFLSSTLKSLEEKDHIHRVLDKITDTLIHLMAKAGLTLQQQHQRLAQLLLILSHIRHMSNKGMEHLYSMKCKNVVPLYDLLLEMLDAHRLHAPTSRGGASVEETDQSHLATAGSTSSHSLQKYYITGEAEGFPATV

[4] = molecular target: estrogen receptor subtype beta (Homo sapiens, UniProt Q92731); settings: relative to estradiol; reported by Weatherman, Chem. and Biol. (2001) 8, 427-436; cited from earlier work
Chain of estrogen receptor subtype beta (Q92731 whole entry): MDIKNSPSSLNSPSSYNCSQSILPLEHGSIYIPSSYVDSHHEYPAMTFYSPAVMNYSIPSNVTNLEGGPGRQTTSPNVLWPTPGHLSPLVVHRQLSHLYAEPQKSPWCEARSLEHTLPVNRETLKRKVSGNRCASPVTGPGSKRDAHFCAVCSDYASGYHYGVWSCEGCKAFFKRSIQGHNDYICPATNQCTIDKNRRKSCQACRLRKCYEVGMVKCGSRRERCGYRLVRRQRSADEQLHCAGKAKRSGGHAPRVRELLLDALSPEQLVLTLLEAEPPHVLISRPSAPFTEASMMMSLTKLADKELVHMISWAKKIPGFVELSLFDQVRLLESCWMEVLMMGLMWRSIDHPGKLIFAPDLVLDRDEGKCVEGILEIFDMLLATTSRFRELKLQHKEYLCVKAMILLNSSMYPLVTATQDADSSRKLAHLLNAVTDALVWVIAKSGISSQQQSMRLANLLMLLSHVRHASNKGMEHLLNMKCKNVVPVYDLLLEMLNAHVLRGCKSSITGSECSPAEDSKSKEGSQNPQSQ

[5] = single oral gavage 10 mg/kg, suspension in aqueous 0.5% HPMC and 0.1% polysorbate 80 (Tween 80)
[6] = oral, suspension in aqueous 0.5% HPMC and 0.1% polysorbate 80 (Tween 80)

Bioavailability of 1 in Rat (% F) [1, 5] [% F]	melting point	SMILES	further results
21.3	–	CC/C(=C(\c1ccc(/C=C/C(=O)O)cc1)c1ccc(OC(=O)CN2CCOCC2)cc1)c1ccccc1 [Compound 31, (2E)-3-[4-((1Z)-1-{4-[(morpholin-4-ylacetyl)oxy]phenyl}-2-phenylbut-1-enyl)phenyl]prop-2-enoic acid]	–
86.6	155 to 157 °C and 158 to 160 °C	CCC(=O)Oc1ccc(/C(=C(/CC)c2ccccc2)c2ccc(/C=C/C(=O)O)cc2)cc1 [Compound 7, (2E)-3-(4-{(1Z)-2-phenyl-1-[4-(propionyloxy)phenyl]but-1-enyl}phenyl)prop-2-enoic acid]	Bioavailability of 1 in Rat [1, 6]: 86.6 % F; solubility thermodynamic [2]: 61 µg/mL (≈ 143 µM)
13.9	–	CC/C(=C(\c1ccc(/C=C/C(=O)O)cc1)c1ccc(OC(=O)CN2CCCCC2)cc1)c1ccccc1 [Compound 33, (2E)-3-[4-((1Z)-2-phenyl-1-{4-[(piperidin-1-ylacetyl)oxy]phenyl}but-1-enyl)phenyl]prop-2-enoic acid]	–
52.4	190 to 191 °C	CC/C(=C(\c1ccc(/C=C/C(=O)O)cc1)c1ccc(OC(=O)CCOC)cc1)c1ccccc1 [Compound 26]	–
18.2	–	CCCC(=O)Oc1ccc(/C(=C(/CC)c2ccccc2)c2ccc(/C=C/C(=O)O)cc2)cc1 [Compound 21, (2E)-3-(4-{(1Z)-1-[4-(butyryloxy)phenyl]-2-phenylbut-1-enyl}phenyl)prop-2-enoic acid]	Bioavailability of 1 in Rat [1, 6]: 18.2 % F; solubility thermodynamic [2]: 21 µg/mL (≈ 47.7 µM)
3.3	–	CC/C(=C(\c1ccc(/C=C/C(=O)O)cc1)c1ccc(OC(=O)C2CCCCC2)cc1)c1ccccc1 [Compound 29, (2E)-3-[4-((1Z)-1-{4-[(cyclohexylcarbonyl)oxy]phenyl}-2-phenylbut-1-enyl)phenyl]prop-2-enoic acid]	–
13.5	–	CC/C(=C(\c1ccc(/C=C/C(=O)O)cc1)c1ccc(OC(C)=O)cc1)c1ccccc1 [Compound 20, (2E)-3-(4-{(1Z)-1-[4-(acetyloxy)phenyl]-2-phenylbut-1-enyl}phenyl)prop-2-enoic acid]	Bioavailability of 1 in Rat [1, 6]: 13.5 % F; solubility thermodynamic [2]: 129 µg/mL (≈ 313 µM)
–	206 to 208 °C	CC/C(=C(\c1ccc(/C=C/C(=O)O)cc1)c1ccc(OC(=O)CN(C)C)cc1)c1ccccc1 (as salt: salt) [Compound 23, (2E)-3-[4-((1Z)-1-{4-[(N,N-dimethylglycyl)oxy]phenyl}-2-phenylbut-1-enyl)phenyl]prop-2-enoic acid]	–
38.3	–	CC/C(=C(\c1ccc(/C=C/C(=O)O)cc1)c1ccc(OC(=O)CN(C)C)cc1)c1ccccc1 [Compound 23, (2E)-3-[4-((1Z)-1-{4-[(N,N-dimethylglycyl)oxy]phenyl}-2-phenylbut-1-enyl)phenyl]prop-2-enoic acid]	Bioavailability of 1 in Rat [1, 6]: 38.3 % F; solubility thermodynamic [2]: 15 µg/mL (≈ 32.9 µM)
13.4	–	CC/C(=C(\c1ccc(/C=C/C(=O)O)cc1)c1ccc(OC(=O)CN2CCN(C)CC2)cc1)c1ccccc1 [Compound 34, (2E)-3-{4-[(1Z)-1-(4-{[(4-methylpiperazin-1-yl)acetyl]oxy}phenyl)-2-phenylbut-1-enyl]phenyl}prop-2-enoic acid]	–

Second part, the compound before the results:

SMILES	Bioavailability of 1 in Rat (% F) [1, 5] [% F]	melting point	further results
CC/C(=C(\c1ccc(/C=C/C(=O)O)cc1)c1ccc(OC(=O)CCC(F)(F)F)cc1)c1ccccc1 [Compound 27, (2E)-3-[4-((1Z)-2-phenyl-1-{4-[(4,4,4-trifluorobutanoyl)oxy]phenyl}but-1-enyl)phenyl]prop-2-enoic acid]	28.9	–	–
CC/C(=C(\c1ccc(/C=C/C(=O)O)cc1)c1ccc(OC(=O)OC)cc1)c1ccccc1 [Compound 40, (2E)-3-[4-((1Z)-1-{4-[(Methoxycarbonyl)oxy]phenyl}-2-phenyl-1-butenyl)phenyl]-2-propenoic acid]	21.9	140 to 142 °C	–
CC/C(=C(\c1ccc(/C=C/C(=O)O)cc1)c1ccc(OC(=O)c2ccno2)cc1)c1ccccc1 [Compound 24, (2E)-3-[4-((1Z)-1-{4-[(5-Isoxazolylcarbonyl)oxy]phenyl}-2-phenyl-1-butenyl)phenyl]-2-propenoic acid]	43.2	141 to 142 °C	–
CC/C(=C(\c1ccc(/C=C/C(=O)O)cc1)c1ccc(OC(=O)C(C)(C)C)cc1)c1ccccc1 [Compound 28, (2E)-3-[4-((1Z)-1-{4-[(2,2-dimethylpropanoyl)oxy]phenyl}-2-phenylbut-1-enyl)phenyl]prop-2-enoic acid]	3.5	–	–
CC/C(=C(\c1ccc(/C=C/C(=O)O)cc1)c1ccc(OC(=O)c2ccccc2)cc1)c1ccccc1 [Compound 18, (2E)-3-(4-{(1Z)-1-[4-(benzoyloxy)phenyl]-2-phenylbut-1-enyl}phenyl)prop-2-enoic acid]	12.3	–	–
CCOC(=O)Oc1ccc(/C(=C(/CC)c2ccccc2)c2ccc(/C=C/C(=O)O)cc2)cc1 [Compound 37, (2E)-3-[4-((1Z)-1-{4-[(Ethoxycarbonyl)oxy]phenyl}-2-phenyl-1-butenyl)phenyl]-2-propenoic acid]	43.2	135 to 136 °C	–
CC/C(=C(\c1ccc(/C=C/C(=O)O)cc1)c1ccc(OP(=O)(O)O)cc1)c1ccccc1 [Compound 35, (2E)-3-(4-{(1Z)-2-Phenyl-1-[4-(phosphonooxy)phenyl]-1-butenyl}phenyl)-2-propenoic acid]	37.0	181 to 183 °C	Bioavailability of 1 in Rat [1, 6]: 37.0 % F; solubility thermodynamic [2]: > 1000 µg/mL
CC/C(=C(\c1ccc(/C=C/C(=O)O)cc1)c1ccc(OC(=O)c2ccco2)cc1)c1ccccc1 [Compound 22, (2E)-3-(4-{(1Z)-1-[4-(2-Furoyloxy)phenyl]-2-phenyl-1-butenyl}phenyl)-2-propenoic acid]	16.9	170 to 172 °C	–
CC/C(=C(\c1ccc(/C=C/C(=O)O)cc1)c1ccc(OC(=O)CCC(F)(F)F)cc1)c1ccccc1 (as salt: salt) [Compound 27, (2E)-3-[4-((1Z)-2-phenyl-1-{4-[(4,4,4-trifluorobutanoyl)oxy]phenyl}but-1-enyl)phenyl]prop-2-enoic acid]	–	162 to 163 °C	–
CC/C(=C(\c1ccc(/C=C/C(=O)O)cc1)c1ccc(OC(=O)c2cccs2)cc1)c1ccccc1 [Compound 25, (2E)-3-[4-((1Z)-2-phenyl-1-{4-[(thien-2-ylcarbonyl)oxy]phenyl}but-1-enyl)phenyl]prop-2-enoic acid]	50.9	–	–
CC/C(=C(/c1ccc(O)cc1)c1ccc(/C=C/C(=O)O)cc1)c1ccccc1 [Compound 1, (2E)-3-{4-[(1Z)-1-(4-Hydroxyphenyl)-2-phenylbut-1-enyl]phenyl}prop-2-enoic acid]	5.7	–	Bioavailability of 1 in Rat (% F) ([1]; oral, solution in aqueous 20% hydroxypropoylcyclodextrin): 29.0 % F; Bioavailability of 1 in Rat [1, 6]: 5.7 % F; binding affinity to estrogen receptor subtype alpha, % that of estradiol [3]: 2%; solubility thermodynamic [2]: 23 µg/mL (≈ 62.1 µM); binding affinity to estrogen receptor subtype beta, % that of estradiol [4]: 1%
CC/C(=C(\c1ccc(/C=C/C(=O)O)cc1)c1ccc(OC(=O)c2cccs2)cc1)c1ccccc1 (as salt: salt) [Compound 25, (2E)-3-[4-((1Z)-2-phenyl-1-{4-[(thien-2-ylcarbonyl)oxy]phenyl}but-1-enyl)phenyl]prop-2-enoic acid]	–	175 to 176 °C	–
